Data from PubChem BioAssay (NCI).
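Briefly, cells in 96-well plates were exposed to five compound concentrations for 48 h, and endpoints were estimated by linear interpolation. The concentration for 50% growth inhibition is given as GI50. TGI: concentration producing complete growth inhibition.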

Legend:
Test in all cases: NCI tumour cell line growth inhibition, 48 h
[1] = tested on: OVCAR-3 ovarian
[2] = tested on: HS 578T breast
[3] = tested on: SNB-19 CNS
[4] = tested on: OVCAR-4 ovarian
[5] = tested on: SNB-75 CNS
[6] = tested on: SF-295 CNS
[7] = tested on: 786-0 renal
[8] = tested on: KM12 colon
[9] = tested on: MDA-MB-231 breast
[10] = tested on: SK-MEL-2 melanoma
[11] = tested on: MDA-MB-435
[12] = tested on: HCT-15 colon
[13] = tested on: NCI/ADR-RES ovarian
[14] = tested on: NCI-H460 lung
[15] = tested on: SK-OV-3 ovarian
[16] = tested on: IGROV1 ovarian
[17] = tested on: RPMI-8226 leukemia
[18] = tested on: SR leukemia
[19] = tested on: M14 melanoma
[20] = tested on: HCC-2998 colon
[21] = tested on: SK-MEL-28 melanoma
[22] = tested on: A549 NSCLC
[23] = tested on: A498 renal
[24] = tested on: BT-549 breast
[25] = tested on: OVCAR-5 ovarian
[26] = tested on: SF-268 CNS
[27] = tested on: NCI-H23 lung
[28] = tested on: HOP-92 NSCLC
[29] = tested on: LOX IMVI melanoma
[30] = tested on: T-47D breast
[31] = tested on: UO-31 renal
[32] = tested on: NCI-H522 lung
[33] = tested on: HCT-116 colon
[34] = tested on: PC-3 prostate
[35] = tested on: U251 CNS
[36] = tested on: HOP-62 NSCLC
[37] = tested on: OVCAR-8 ovarian
[38] = tested on: MCF7 breast
[39] = tested on: SF-539 CNS
[40] = tested on: RXF 393 renal
[41] = tested on: ACHN renal
[42] = tested on: CAKI-1 renal
[43] = tested on: UACC-62 melanoma
[44] = tested on: NCI-H226 lung
[45] = tested on: EKVX NSCLC
[46] = tested on: CCRF-CEM leukemia
[47] = tested on: SW-620 colon
[48] = tested on: MALME-3M melanoma
[49] = tested on: SN12C renal
[50] = tested on: COLO 205 colon
[51] = tested on: MOLT-4 leukemia
[52] = tested on: HT29 colon
[53] = tested on: DU-145 prostate
[54] = tested on: K-562 leukemia
[55] = tested on: HL-60(TB) leukemia
[56] = tested on: SK-MEL-5 melanoma
[57] = tested on: TK-10 renal
[58] = tested on: UACC-257 melanoma

## O=C(/C=C\c1cccc([N+](=O)[O-])c1)c1ccccc1
[1]
  GI50: 1.76 µM
  TGI: 3.6 µM
[2]
  GI50: 5.97 µM
  TGI: 61 µM
[3]
  GI50: 6.81 µM
  TGI: 21 µM
[4]
  GI50: 3.38 µM
  TGI: 12.6 µM
[5]
  GI50: 9.82 µM
  TGI: 30.5 µM
[6]
  GI50: 7.68 µM
  TGI: 29.5 µM
[7]
  GI50: 4.95 µM
  TGI: 12.7 µM
[8]
  GI50: 2.36 µM
  TGI: 5.41 µM
[9]
  GI50: 9.72 µM
  TGI: 25.1 µM
[10]
  GI50: 3.91 µM
  TGI: 17.9 µM
[11]
  GI50: 3.53 µM
  TGI: 14.4 µM
[12]
  GI50: 2.16 µM
  TGI: 5.95 µM
[13]
  GI50: 5.48 µM
  TGI: 30.1 µM
[14]
  GI50: 7.54 µM
  TGI: 28.5 µM
[15]
  GI50: 15 µM
  TGI: 30.4 µM
[16]
  GI50: 2.62 µM
  TGI: > 28.6 µM
[17]
  GI50: 1.07 µM
  TGI: > 100 µM
[18]
  GI50: 2.17 µM
  TGI: > 100 µM
[19]
  GI50: 3.74 µM
  TGI: 14.2 µM
[20]
  GI50: 2.81 µM
  TGI: 9.74 µM
[21]
  GI50: 2.17 µM
  TGI: 4.6 µM
[22]
  GI50: 21 µM
  TGI: 68.2 µM
[23]
  GI50: 9.05 µM
  TGI: 25.1 µM
[24]
  GI50: 2.85 µM
  TGI: 12.1 µM
[25]
  GI50: 3.92 µM
  TGI: 18.7 µM
[26]
  GI50: 5.46 µM
  TGI: 20.5 µM
[27]
  GI50: 6.16 µM
  TGI: 21.3 µM
[28]
  GI50: 2.04 µM
  TGI: 5.12 µM
[29]
  GI50: 1.76 µM
  TGI: 3.82 µM
[30]
  GI50: 2.33 µM
  TGI: 6.1 µM
[31]
  GI50: 1.79 µM
  TGI: 4.11 µM
[32]
  GI50: 1.46 µM
  TGI: 3.93 µM
[33]
  GI50: 1.72 µM
  TGI: 5.07 µM
[34]
  GI50: 2.67 µM
  TGI: 11.3 µM
[35]
  GI50: 2.01 µM
  TGI: 4.91 µM
[36]
  GI50: 19.5 µM
  TGI: 46.6 µM
[37]
  GI50: 3.66 µM
  TGI: 17 µM
[38]
  GI50: 1.81 µM
  TGI: 9.71 µM
[39]
  GI50: 3.4 µM
  TGI: 9.81 µM
[40]
  GI50: 2.01 µM
  TGI: 5.15 µM
[41]
  GI50: 1.9 µM
  TGI: 3.81 µM
[42]
  GI50: 2.53 µM
  TGI: 5.8 µM
[43]
  GI50: 7.93 µM
  TGI: 22 µM
[44]
  GI50: 18.7 µM
  TGI: 45.9 µM
[45]
  GI50: 13.1 µM
  TGI: 29.1 µM
[46]
  GI50: 0.568 µM
  TGI: > 100 µM
[47]
  GI50: 1.81 µM
  TGI: 5.82 µM
[48]
  GI50: 2.07 µM
  TGI: 5.01 µM
[49]
  GI50: 3.71 µM
  TGI: 14.1 µM
[50]
  GI50: 2.04 µM
  TGI: 4.12 µM
[51]
  GI50: 3.19 µM
  TGI: > 100 µM
[52]
  GI50: 2.77 µM
  TGI: > 100 µM
[53]
  GI50: 2.35 µM
  TGI: 5.88 µM
[54]
  GI50: 2.21 µM
  TGI: > 100 µM
[55]
  GI50: 2.91 µM
  TGI: > 100 µM
[56]
  GI50: 6.97 µM
  TGI: 20.2 µM
[57]
  GI50: 2.05 µM
  TGI: 5.32 µM
[58]
  GI50: 4.85 µM
  TGI: 12.4 µM
